# Assay results published in patent US20050233403A1, “Human adipocyte cell populations and methods for identifying modulators of same” (AdipoGenix, Inc., priority 2002, published 2005).
# Where two headings read alike, the source gives them in different places.
# How the values were obtained:
# [1] = system: 3T3-L1 cells; test: Fluorescent fatty acid uptake by 3T3-L1 cells, 96-well format; type: cell-based; conditions: for Uptake by 3T3-L1 cells, Day 9 / Uptake by 3T3-L1 cells, Day 0: 10 μM dye, one hour, means ± SEM; for Uptake by 3T3-L1 cells, Day 9: cells 9 days in differentiation medium; for Uptake by 3T3-L1 cells, Day 0: cells not incubated in differentiation medium; for Fatty acid uptake, Fluor. Units: dye 120 minutes
# Protocol: To establish a rapid, 96 well format, automated assay of fatty acid uptake, the reproducibility and signal-to-noise ratios of four different fatty acid-fluorescent dye conjugates in undifferentiated and differentiated preadipocytes was determined. 3T3-L1 cells were used to compare the fluorescent dyes, the best of which was then selected for the human preadipocyte system. The fluorescent fatty acids tested were
# These fatty acid-dye conjugates were chosen because their final size is close to that of physiologically relevant C:18 fatty acids, the most abundant in human fat cells and in the diet (Kokatnur, M., et al.(1979) Am. J. Clin. Nutr. 32:2198-205; Llado, I., et al. (1996) Biochem. Mol. Biol. Int. 40:295-303)). Furthermore, these dyes are vital, allowing the cells to be re-used in additional assays. 3T3-L1 cells were seeded in the wells of a 96-well plate at a density of 3.3×10^3 cells/cm^2 (1×10^3 cells/well). After reaching confluence, cells were exposed to differentiation medium for 0 and 9 days. The wells were washed with assay buffer (150 mM […], 10 mM NaPO4; 3 mM KCl; 10 μM CaCl2; 1 mM MgCl2; 25 mM glucose; pH 7.4) containing 20 μM fatty acid-free BSA, pre-warmed to 37° C. The fluorescent fatty acids were added in assay buffer to a final concentration of 10 μM, and incubated at 37° C. for one hour. Wells were washed with assay buffer containing 0.1% BSA.
# Table 15 indicates the results of experiments in which 3T3-L1 cells were exposed to a differentiation inducing medium from day 0. Fatty acid uptake was assayed by exposing cells to BODPY for 120 minutes at each of the times represented.
# [2] = system: 3T3-L1 cells; test: as above; type: cell-based; conditions: for BODIPY uptake, Day 0 / BODIPY uptake, Day 8: 10 μM
# [3] = system: human preadipocytes; test: Fatty acid uptake by human preadipocytes exposed to differentiation medium (fatty acid-based cellulomic assay); type: cell-based; conditions: 10 d, relative to control medium, means of 4 studies
# Protocol: The following example describes the optimization of methods used to differentiate human preadipocytes. The example details a thorough analyses of known and potential agents and conditions for promoting human preadipocyte differentiation. Experiments were performed with abdominal subcutaneous as well as mesenteric and omental preadipocytes. A variety of conditions were tested using the fatty acid-based cellulomic assay described in Example 4. Optimization of differentiation conditions enhances the usefulness of human preadipocytes in screening for modulators (e.g., inhibitors) of obesity.
# (§1) The fatty acid uptake ratio was expressed as a function of fatty acid uptake in control medium. % Diff. represents the proportion of cells that developed doubly refractile lipid droplets visible by phase contrast microscopy by observers unaware of culture conditions. Means of 4 studies are shown. CoV was also determined (not shown) to monitor assay reliability.
# [4] = system: human preadipocytes; test: Extent of differentiation: % cells with doubly refractile lipid droplets by phase contrast microscopy; type: cell-based; conditions: 10 d
# Protocol: as §1
# [5] = system: human subcutaneous adipocytes; conditions: positive control
# Protocol: (§2) Cells are 10 thawed in PM and grown in tissue culture flasks under standard incubation conditions (5% carbon dioxide, 37° C.). Cells are passaged 1:2 upon 80-100% confluency. Cells are passaged up to ten times to produce enough cells for primary screening. • C. Cells are seeded and differentiated, as described in the previous section, in 384-well plates. • D. On day 6 of preadipocyte differentiation, the DM is first changed as described in the previous section. Cells are then incubated in a replicate manner (i.e., in triplicate) with compounds. […] Compounds are further diluted in a PBS or similarly buffered solution in the absence or presence of albumin to aid compound solubility. […] Positive control cells are treated with a compound or reagent known to modulate their ability to take up and/or accumulate fatty acids. […] The FA* currently used is 4,4-difluoro-5-methyl-4-bora-3a,4a-diaza-s-indacene-3-dodecanoic acid (C1-BODIPY® 500/510 C12, catalog # D-3823, Molecular Probes, Eugene, Oreg.). […] Cells are incubated for four hours at 5% carbon dioxide/37° C., then post-washed with FAB, preferably three times, to remove unincorporated FA*. Cellular fluorescence of triglyceride droplets that have incorporated FA* is measured on a microplate reader. Efficacy of compounds on inhibiting FA* accumulation is determined by: % Efficacy=100−(sample fluorescence/negative control fluorescence×100). • H. Subsequent determination of compound toxicity on cells is measured by incubating cells (after the post-wash and FA* reading) with an aliquot of Alamar Blue (catalog # DAL-1100, BioSource International), a fluorescent dye that is reduced via cellular metabolism. After incubation of cells with the dye for up to four hours, fluorescence of the reduced compound is read. Alternatively, compound toxicity on cells can be determined in an experiment separate from the primary screen uptake/accumulation assay. Toxicity of compounds is determined by: % Toxicity =100−(sample fluorescence/negative control fluorescence×100).
# (§3) Primary screens for inhibition of fatty acid uptake are carried out using human subcutaneous preadipocytes in each of two assay formats. In a first assay format, cells are exposed to natural product and synthetic library components early in the differentiation process (days 1-3 following addition of differentiation medium). In a second assay format, cells are exposed to library components late in the process (days 7-10 following addition of differentiation medium), after at least 80% of cells have differentiated.
# (§4) Subcutaneous human preadipocytes (passage 3-5) are seeded in plating medium at 3.0×10^4 cells/cm^2 in 96-well or 384-well plates, giving 100% confluence upon adherence. […]
# [6] = system: human subcutaneous adipocytes; test: cells; conditions: Adipocyte, read-out: % Efficacy (inhibition of FA* accumulation)
# Protocol: as §2, §3, §4
# [7] = system: differentiating adipocytes
# Protocol: The assay features differentiated human preadipocytes, but the procedure can be modified in a number of ways to discover novel compounds affecting the adipocytes of human and other species (i.e., rodent). For example, the day of compound addition during preadipocyte differentiation process can be changed as well as the incubation period. Similarly, the day of FA* addition, its type of fluorescent label and chain length, and its concentration and incubation time can be modified. • B. Up to five cell strains of frozen primary human subcutaneous preadipocytes (e.g., subcutaneous preadipocytes) are used, but this number can be increased as needed. Omental and mesenteric preadipocytes can be used in a similar manner. Cells are 10 thawed in PM and grown in tissue culture flasks under standard incubation conditions (5% carbon dioxide, 37° C.). Cells are passaged 1:2 upon 80-100% confluency. Cells are passaged up to ten times to produce enough cells for primary screening. • C. […] Cellular fluorescence of triglyceride droplets that have incorporated FA* is measured on a microplate reader. Efficacy of compounds on inhibiting FA* accumulation is determined by: % Efficacy=100−(sample fluorescence/negative control fluorescence×100). • H. Subsequent determination of compound toxicity on cells is measured by incubating cells (after the post-wash and FA* reading) with an aliquot of Alamar Blue (catalog # DAL-1100, BioSource International), a fluorescent dye that is reduced via cellular metabolism. After incubation of cells with the dye for up to four hours, fluorescence of the reduced compound is read. Alternatively, compound toxicity on cells can be determined in an experiment separate from the primary screen uptake/accumulation assay. Toxicity of compounds is determined by: % Toxicity =100−(sample fluorescence/negative control fluorescence×100).
# Subsequent determination of compound toxicity is measured by incubating cells with one tenth of total cell volume of Alamar Blue (an indicator of cellular metabolism) for up to four hours before measuring fluorescence of the reduced compound. […]
# [8] = Dex 10^−4 M in suboptimal differentiation medium
# [9] = Dex 10^−7 M in suboptimal differentiation medium
# [10] = Dex 10^−10 M in suboptimal differentiation medium
smiles,measurement,setting,value
"CCCCCCC(C/C=C\CCCCCCCC(=O)O)OC(=O)c1c2ccccc2cc2ccccc12 (stereo not drawn) [12-AO, 12-(9-anthroyloxy) oleic acid]","Uptake by 3T3-L1 cells, Day 9",[1],10960 ± 1172 Raw Fluorescent Units
same,"Uptake by 3T3-L1 cells, Day 0",[1],3613 ± 160 Raw Fluorescent Units
"CC1=[N+]2C(=Cc3ccc(CCCCCCCCCCCC(=O)O)n3[B-]2(F)F)C=C1 [BODIPY 500/510 C12, 4,4-difluoro-5-methyl-4-bora-3a,4a-diaza-s-indacene-3-dodecanoic acid]","Uptake by 3T3-L1 cells, Day 9",[1],56869 ± 2093 Raw Fluorescent Units
same,"Uptake by 3T3-L1 cells, Day 0",[1],404 ± 21 Raw Fluorescent Units
same,"Fatty acid uptake, Fluor. Units",[1]; Day 0 in differentiation inducing medium,1166.67 Fluor. Units
same,"Fatty acid uptake, Fluor. Units",[1]; Day 2 in differentiation inducing medium,5006.75 Fluor. Units
same,"Fatty acid uptake, Fluor. Units",[1]; Day 4 in differentiation inducing medium,10884.5 Fluor. Units
same,"Fatty acid uptake, Fluor. Units",[1]; Day 6 in differentiation inducing medium,15441.8 Fluor. Units
same,"Fatty acid uptake, Fluor. Units",[1]; Day 10 in differentiation inducing medium,31645.8 Fluor. Units
same,"Fatty acid uptake, Fluor. Units",[1]; Day 12 in differentiation inducing medium,37910 Fluor. Units
same,"BODIPY uptake, Day 0",[2]; incubation 10 min,1290.263 rfu
same,"BODIPY uptake, Day 8",[2]; incubation 10 min,1198.325 rfu
same,"BODIPY uptake, Day 0",[2]; incubation 30 min,510.3125 rfu
same,"BODIPY uptake, Day 8",[2]; incubation 30 min,18518.67 rfu
same,"BODIPY uptake, Day 0",[2]; incubation 120 min,686.9375 rfu
same,"BODIPY uptake, Day 8",[2]; incubation 120 min,46363 rfu
same,"BODIPY uptake, Day 0",[2]; incubation 240 min,1104.125 rfu
same,"BODIPY uptake, Day 8",[2]; incubation 240 min,49153.33 rfu
same,"Fatty acid uptake, Fluor. Units","[2]; Day 8 in differentiation inducing medium, dye 120 minutes",18685 Fluor. Units
"C[C@@H]1C[C@H]2[C@@H]3CCC4=CC(=O)C=C[C@]4(C)[C@@]3(F)[C@@H](O)C[C@]2(C)[C@@]1(O)C(=O)CO [Dex, dexamethasone]",Uptake Ratio,[3]; [8],5
same,Uptake Ratio,[3]; [9],79
same,Uptake Ratio,[3]; [10],49
same,% Diff.,[4]; [8],30%
same,% Diff.,[4]; [9],70%
same,% Diff.,[4]; [10],60%
"O=C([O-])CCCCCCCCCCCc1ccc2n1[B-](F)(F)[N+]1=C(c3cccs3)C=CC1=C2.[H+] [BODIPY 558/568 C12, 4,4-difluoro-5-(2-thienyl) 1-4-bora-3a,4a-diaza-s-indacene-3-dodecanoic acid]","Uptake by 3T3-L1 cells, Day 9",[1],3622 ± 641 Raw Fluorescent Units
same,"Uptake by 3T3-L1 cells, Day 0",[1],116 ± 9 Raw Fluorescent Units
"O=C(O)CCCCCCCCCCCCCCCOC(=O)c1c2ccccc2cc2ccccc12 [16-AP, 16-(9-anthroyloxy) palmitic acid]","Uptake by 3T3-L1 cells, Day 9",[1],8528 ± 20 Raw Fluorescent Units
same,"Uptake by 3T3-L1 cells, Day 0",[1],2944 ± 404 Raw Fluorescent Units
"N#CC(C#N)=NNc1ccc(OC(F)(F)F)cc1 [FCCP, carbonyl cyanide p-(trifluoromethoxy)-phenylhydrazone]",FA* uptake and/or accumulation,[5],inhibits FA* uptake and/or accumulation in a dose-responsive manner
same,Emax at 0.3 µM,[6],42%
same,Emax at 1 µM,[6],79%
same,Emax at 3 µM,[6],90%
same,% Toxicity,[7]; 0.3 μM,−1%
same,% Toxicity,[7]; 1 μM,−4%
same,% Toxicity,[7]; 3 μM,5%
